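Step 1: Grow cells in 96-well plates. Step 2: Expose to compound for 48 hours at 5 concentrations. Step 3: Interpolate endpoints linearly; if unreached, use highest concentration. TGI: concentration producing complete growth inhibition.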
Experiments:
Experiment in all cases: NCI tumour cell line growth inhibition, 48 h
[1] = system: OVCAR-3 ovarian
[2] = system: OVCAR-5 ovarian
[3] = system: HOP-62 NSCLC
[4] = system: SNB-19 CNS
[5] = system: CCRF-CEM leukemia
[6] = system: EKVX NSCLC
[7] = system: A549 NSCLC
[8] = system: ACHN renal
[9] = system: SF-539 CNS
[10] = system: HOP-18 NSCLC
[11] = system: M14 melanoma
[12] = system: NCI-H23 lung
[13] = system: NCI-H226 lung
[14] = system: TK-10 renal
[15] = system: OVCAR-4 ovarian
[16] = system: LOX IMVI melanoma
[17] = system: NCI-H460 lung
[18] = system: SK-MEL-5 melanoma
[19] = system: CAKI-1 renal
[20] = system: UACC-257 melanoma
[21] = system: A498 renal
[22] = system: HCT-116 colon
[23] = system: U251 CNS
[24] = system: 786-0 renal
[25] = system: DLD-1 colon
[26] = system: NCI-H522 lung
[27] = system: HCC-2998 colon
[28] = system: RPMI-8226 leukemia
[29] = system: RXF-631 renal
[30] = system: XF 498 CNS
[31] = system: COLO 205 colon
[32] = system: SF-268 CNS
[33] = system: DMS 273 small cell lung
[34] = system: KM12 colon
[35] = system: SF-295 CNS
[36] = system: K-562 leukemia
[37] = system: SN12C renal
[38] = system: SK-MEL-2 melanoma
[39] = system: UO-31 renal
[40] = system: SNB-75 CNS
[41] = system: M19-MEL melanoma
[42] = system: OVCAR-8 ovarian
[43] = system: LXFL 529 NSCLC
[44] = system: HT29 colon
[45] = system: UACC-62 melanoma
[46] = system: DMS 114 small cell lung
[47] = system: SK-OV-3 ovarian
[48] = system: SW-620 colon
[49] = system: HOP-92 NSCLC
[50] = system: SR leukemia
[51] = system: MOLT-4 leukemia
[52] = system: SK-MEL-28 melanoma
[53] = system: SNB-78 CNS
[54] = system: IGROV1 ovarian
[55] = system: MALME-3M melanoma
[56] = system: HL-60(TB) leukemia
[57] = system: HCT-15 colon
[58] = system: RXF 393 renal

Cn1cnnc1Sc1c([N+](=O)[O-])nc(-c2ccc([N+](=O)[O-])cc2)n1C
TGI [1]: 30.8 µM
TGI [2]: 52 µM
TGI [3]: > 100 µM
TGI [4]: > 100000 nM
TGI [5]: 33.7 µM
TGI [6]: 76.1 µM
TGI [7]: > 100000 nM
TGI [8]: 33.7 µM
TGI [9]: 33.2 µM
TGI [10]: 31.3 µM
TGI [11]: 30.6 µM
TGI [12]: 32.4 µM
TGI [13]: 89.9 µM
TGI [14]: 32.9 µM
TGI [15]: 29.5 µM
TGI [16]: 26.8 µM
TGI [17]: > 100000 nM
TGI [18]: 30.8 µM
TGI [19]: > 100000 nM
TGI [20]: 29.5 µM
TGI [21]: > 100 µM
TGI [22]: 28.4 µM
TGI [23]: 30.2 µM
TGI [24]: 31.8 µM
TGI [25]: 29.3 µM
TGI [26]: 19.7 µM
TGI [27]: 31.8 µM
TGI [28]: 37.8 µM
TGI [29]: 32.8 µM
TGI [30]: 22.5 µM
TGI [31]: 28.3 µM
TGI [32]: 32.5 µM
TGI [33]: 31.8 µM
TGI [34]: 41.2 µM
TGI [35]: > 100 µM
TGI [36]: 53.2 µM
TGI [37]: 29.6 µM
TGI [38]: 29.8 µM
TGI [39]: 28 µM
TGI [40]: 87.5 µM
TGI [41]: 32.3 µM
TGI [42]: 33 µM
TGI [43]: 26.8 µM
TGI [44]: 34.3 µM
TGI [45]: 30.4 µM
TGI [46]: 32.4 µM
TGI [47]: > 100000 nM
TGI [48]: 31.3 µM
TGI [49]: 34.9 µM
TGI [50]: 35.5 µM
TGI [51]: 31.8 µM
TGI [52]: 29.6 µM
TGI [53]: 35.6 µM
TGI [54]: 33.4 µM
TGI [55]: 29.5 µM

COc1c2c(c(O)c3c4c(c(C)cc13)C1OC3(C(OC)OC5CC(C)(O)C(OC6CC(C)(O)C(O)C(C)O6)C(C)O5)OC1C(OC)(O4)C31CO1)C(=O)C(O)CC2OC1CC(C)(O)C(OC(C)=O)C(C)O1 (stereo not drawn)
TGI [1]: < 0.01 µM
TGI [2]: < 0.01 µM
TGI [56]: < 10 nM
TGI [4]: 739 nM
TGI [6]: 0.0336 µM
TGI [7]: 1450 nM
TGI [8]: 0.0924 µM
TGI [9]: < 0.01 µM
TGI [11]: 0.0156 µM
TGI [12]: < 0.01 µM
TGI [13]: < 0.01 µM
TGI [14]: 18.6 µM
TGI [15]: < 0.01 µM
TGI [17]: 150 nM
TGI [18]: < 0.01 µM
TGI [19]: 2710 nM
TGI [20]: < 0.01 µM
TGI [22]: 5.74 µM
TGI [23]: < 0.0108 µM
TGI [24]: < 0.0115 µM
TGI [25]: 4.17 µM
TGI [26]: < 0.01 µM
TGI [57]: 1580 nM
TGI [27]: < 0.01 µM
TGI [28]: < 0.01 µM
TGI [29]: 4.48 µM
TGI [30]: < 0.01 µM
TGI [32]: 0.0167 µM
TGI [33]: < 0.01 µM
TGI [34]: < 0.01 µM
TGI [35]: < 0.023 µM
TGI [36]: 1.66 µM
TGI [37]: 0.113 µM
TGI [38]: < 0.01 µM
TGI [39]: 0.154 µM
TGI [40]: < 0.01 µM
TGI [41]: < 0.01 µM
TGI [43]: 0.0889 µM
TGI [45]: < 0.01 µM
TGI [46]: < 0.01 µM
TGI [47]: 714 nM
TGI [48]: 1.23 µM
TGI [49]: < 0.01 µM
TGI [58]: < 10 nM
TGI [51]: 0.102 µM
TGI [53]: < 0.0448 µM
TGI [54]: 0.957 µM
TGI [55]: < 0.01 µM

— PubChem BioAssay (NCI)
